In ChEMBL document CHEMBL1201862, “PubChem BioAssay data set” (2004):
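All cell lines were grown in 96-well plates and treated with compound for 48 hours. At the GI50, growth is halved.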 Active and inactive are the calls of the source. No stated cut-off is given here; in the data, active = GI50 up to about 1.1 µM and inactive = higher.

Columns and labels:
Assay in all cases: NCI anticancer screen, dose series, 48 h
786-0 = tested on: 786-0
A549 = tested on: A549
ACHN = tested on: ACHN
BT-549 = tested on: BT-549
CAKI-1 = tested on: CAKI-1
CCRF-CEM = tested on: CCRF-CEM
COLO 205 = tested on: COLO 205
DU-145 = tested on: DU-145
EKVX = tested on: EKVX
HCC 2998 = tested on: HCC 2998
HCT-116 = tested on: HCT-116
HCT-15 = tested on: HCT-15
HL-60 = tested on: HL-60
HOP-62 = tested on: HOP-62
HOP-92 = tested on: HOP-92
HT-29 = tested on: HT-29
Hs-578T = tested on: Hs-578T
IGROV-1 = tested on: IGROV-1
K562 = tested on: K562
KM12 = tested on: KM12
LOX IMVI = tested on: LOX IMVI
M14 = tested on: M14
MCF7 = tested on: MCF7
MDA-MB-231 = tested on: MDA-MB-231
MDA-MB-435 = tested on: MDA-MB-435
MDA-N = tested on: MDA-N
MOLT-4 = tested on: MOLT-4
NCI-H226 = tested on: NCI-H226
NCI-H23 = tested on: NCI-H23
NCI-H460 = tested on: NCI-H460
NCI-H522 = tested on: NCI-H522
NCI/ADR-RES = tested on: NCI/ADR-RES
OVCAR-3 = tested on: OVCAR-3
OVCAR-4 = tested on: OVCAR-4
OVCAR-5 = tested on: OVCAR-5
OVCAR-8 = tested on: OVCAR-8
PC-3 = tested on: PC-3
RXF 393 = tested on: RXF 393
SF-268 = tested on: SF-268
SF-295 = tested on: SF-295
SF-539 = tested on: SF-539
SK-MEL-28 = tested on: SK-MEL-28
SK-MEL-5 = tested on: SK-MEL-5
SK-OV-3 = tested on: SK-OV-3
SN12C = tested on: SN12C
SNB-19 = tested on: SNB-19
SNB-75 = tested on: SNB-75
SR = tested on: SR
SW-620 = tested on: SW-620
T47D = tested on: T47D
TK-10 = tested on: TK-10
U-251 = tested on: U-251
UACC-257 = tested on: UACC-257
UACC-62 = tested on: UACC-62
UO-31 = tested on: UO-31

CC1=CC(C/C(C)=C/COc2ccc3ccc(=O)oc3c2)OC1=O (stereo not given)
GI50 (786-0): > 100 µM (inactive)
GI50 (A549): > 100 µM (inactive)
GI50 (ACHN): > 100 µM (inactive)
GI50 (BT-549): 76.2 µM (inactive)
GI50 (CAKI-1): > 100 µM (inactive)
GI50 (CCRF-CEM): > 100 µM (inactive)
GI50 (COLO 205): > 100 µM (inactive)
GI50 (DU-145): > 100 µM (inactive)
GI50 (EKVX): > 100 µM (inactive)
GI50 (HCC 2998): > 100 µM (inactive)
GI50 (HCT-116): 92.7 µM (inactive)
GI50 (HCT-15): 95.9 µM
GI50 (HL-60): 59.4 µM (inactive)
GI50 (HOP-62): > 100 µM (inactive)
GI50 (HOP-92): > 100 µM (inactive)
GI50 (HT-29): > 100 µM (inactive)
GI50 (Hs-578T): > 100 µM (inactive)
GI50 (IGROV-1): > 100 µM (inactive)
GI50 (K562): 59.8 µM (inactive)
GI50 (KM12): > 100 µM (inactive)
GI50 (LOX IMVI): > 100 µM (inactive)
GI50 (M14): > 100 µM (inactive)
GI50 (MCF7): > 100 µM (inactive)
GI50 (MDA-MB-231): 5.66 µM (inactive)
GI50 (MDA-MB-435): 54.5 µM (inactive)
GI50 (MDA-N): 68.9 µM (inactive)
GI50 (MOLT-4): 49.8 µM (inactive)
GI50 (NCI-H226): > 100 µM (inactive)
GI50 (NCI-H23): 50.7 µM (inactive)
GI50 (NCI-H460): > 100 µM (inactive)
GI50 (NCI-H522): > 100 µM (inactive)
GI50 (NCI/ADR-RES): 27.4 µM (inactive)
GI50 (OVCAR-3): > 100 µM (inactive)
GI50 (OVCAR-4): > 100 µM (inactive)
GI50 (OVCAR-5): > 100 µM (inactive)
GI50 (OVCAR-8): > 100 µM (inactive)
GI50 (PC-3): 68.9 µM (inactive)
GI50 (RXF 393): > 100 µM (inactive)
GI50 (SF-268): > 100 µM (inactive)
GI50 (SF-295): > 100 µM (inactive)
GI50 (SF-539): > 100 µM (inactive)
GI50 (SK-MEL-28): > 100 µM (inactive)
GI50 (SK-MEL-5): 53.6 µM (inactive)
GI50 (SK-OV-3): > 100 µM (inactive)
GI50 (SN12C): > 100 µM (inactive)
GI50 (SNB-19): > 100 µM (inactive)
GI50 (SNB-75): > 100 µM (inactive)
GI50 (SR): 95.1 µM (inactive)
GI50 (SW-620): > 100 µM (inactive)
GI50 (T47D): > 100 µM (inactive)
GI50 (TK-10): > 100 µM (inactive)
GI50 (U-251): 90.4 µM (inactive)
GI50 (UACC-257): 47.4 µM (inactive)
GI50 (UACC-62): > 100 µM (inactive)
GI50 (UO-31): > 100 µM (inactive)
